Values quoted from earlier work, collected in patent US6642378B1, “Process for the synthesis of beta-lactam derivatives” (Antibioticos S.p.A., priority 1999, dated 2003).
Where two headings read alike, the source gives them in different places.

Assays:
[1] = data from MSDS (Material Safety Data Sheet)—OHS
[2] = oral, data from MSDS (Material Safety Data Sheet)—OHS

SMILES | oral DL50 rat (rat; [2]) [mg/kg] | Flash point [1] [°C] | oral DL50 rat (rat; in vivo, po) [mg/kg]
CC(C)=O [Acetone] | 5800 | −18.0 | 
CCOC(=O)OCC [Diethylcarbonate] |  | 33.0 | 15000
COC(=O)OC [Dimethylcarbonate] |  | 21.7 | 13000
CCOC(C)=O [Ethyl acetate] | 5620 | −4.0 | 
COC(C)=O [Methyl acetate] |  | −10.0 | 5480
C1CCOC1 [Tetrahydrofuran] | 2816 | −17.2 | 
